The source made the active and inactive calls.
Tests used:
[1] = target: Lysine-specific demethylase 4C (Homo sapiens, UniProt Q9H3R0); test: inhibition of JMJD2C H3K9me3 demethylation – biochemical, DELFIA europium, cherry-picked samples, dose response (AID 488835); assay type: functional
[2] = target: T1, 1-phosphatidylinositol 4,5-bisphosphate phosphodiesterase beta-3 (Homo sapiens, UniProt Q01970); test: Fluorescence-based biochemical high throughput dose response assay to identify inhibitors of phospholipase C isozymes (PLC-B3).
T1 sequence (Q01970 whole entry): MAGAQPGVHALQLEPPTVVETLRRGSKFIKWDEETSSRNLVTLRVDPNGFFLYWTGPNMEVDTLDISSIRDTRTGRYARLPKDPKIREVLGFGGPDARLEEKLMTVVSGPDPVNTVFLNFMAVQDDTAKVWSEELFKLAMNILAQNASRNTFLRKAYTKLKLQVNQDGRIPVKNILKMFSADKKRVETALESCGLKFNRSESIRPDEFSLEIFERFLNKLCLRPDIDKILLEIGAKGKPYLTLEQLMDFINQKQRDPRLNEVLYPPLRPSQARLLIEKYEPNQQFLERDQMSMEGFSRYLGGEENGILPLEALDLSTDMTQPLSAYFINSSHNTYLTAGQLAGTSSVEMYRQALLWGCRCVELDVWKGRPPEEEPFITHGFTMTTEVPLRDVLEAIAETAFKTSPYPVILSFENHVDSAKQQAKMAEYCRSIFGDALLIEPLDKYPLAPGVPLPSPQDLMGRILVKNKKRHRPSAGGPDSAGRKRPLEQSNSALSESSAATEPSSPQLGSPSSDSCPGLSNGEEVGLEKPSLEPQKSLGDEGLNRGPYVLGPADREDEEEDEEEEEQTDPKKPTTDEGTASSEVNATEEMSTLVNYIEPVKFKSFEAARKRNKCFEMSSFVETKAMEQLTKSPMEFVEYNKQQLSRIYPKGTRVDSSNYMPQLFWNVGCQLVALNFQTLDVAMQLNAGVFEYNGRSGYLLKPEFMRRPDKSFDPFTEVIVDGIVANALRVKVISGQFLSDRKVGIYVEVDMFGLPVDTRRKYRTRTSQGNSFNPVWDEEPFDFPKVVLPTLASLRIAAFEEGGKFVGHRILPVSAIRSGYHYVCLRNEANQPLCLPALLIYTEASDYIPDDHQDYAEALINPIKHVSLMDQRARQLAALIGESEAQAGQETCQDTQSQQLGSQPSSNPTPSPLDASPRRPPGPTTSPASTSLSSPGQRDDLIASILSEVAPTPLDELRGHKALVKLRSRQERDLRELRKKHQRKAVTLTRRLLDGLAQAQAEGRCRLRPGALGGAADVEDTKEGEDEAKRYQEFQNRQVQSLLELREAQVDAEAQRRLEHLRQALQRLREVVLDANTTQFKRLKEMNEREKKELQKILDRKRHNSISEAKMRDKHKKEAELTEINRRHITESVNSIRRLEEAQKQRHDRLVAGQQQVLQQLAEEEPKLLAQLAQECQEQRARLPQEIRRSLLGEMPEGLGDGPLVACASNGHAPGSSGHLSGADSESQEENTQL

[3] = target: T2, Apoptotic protease-activating factor 1 (Homo sapiens, UniProt O14727); assay type: functional
T2 sequence (O14727 whole entry): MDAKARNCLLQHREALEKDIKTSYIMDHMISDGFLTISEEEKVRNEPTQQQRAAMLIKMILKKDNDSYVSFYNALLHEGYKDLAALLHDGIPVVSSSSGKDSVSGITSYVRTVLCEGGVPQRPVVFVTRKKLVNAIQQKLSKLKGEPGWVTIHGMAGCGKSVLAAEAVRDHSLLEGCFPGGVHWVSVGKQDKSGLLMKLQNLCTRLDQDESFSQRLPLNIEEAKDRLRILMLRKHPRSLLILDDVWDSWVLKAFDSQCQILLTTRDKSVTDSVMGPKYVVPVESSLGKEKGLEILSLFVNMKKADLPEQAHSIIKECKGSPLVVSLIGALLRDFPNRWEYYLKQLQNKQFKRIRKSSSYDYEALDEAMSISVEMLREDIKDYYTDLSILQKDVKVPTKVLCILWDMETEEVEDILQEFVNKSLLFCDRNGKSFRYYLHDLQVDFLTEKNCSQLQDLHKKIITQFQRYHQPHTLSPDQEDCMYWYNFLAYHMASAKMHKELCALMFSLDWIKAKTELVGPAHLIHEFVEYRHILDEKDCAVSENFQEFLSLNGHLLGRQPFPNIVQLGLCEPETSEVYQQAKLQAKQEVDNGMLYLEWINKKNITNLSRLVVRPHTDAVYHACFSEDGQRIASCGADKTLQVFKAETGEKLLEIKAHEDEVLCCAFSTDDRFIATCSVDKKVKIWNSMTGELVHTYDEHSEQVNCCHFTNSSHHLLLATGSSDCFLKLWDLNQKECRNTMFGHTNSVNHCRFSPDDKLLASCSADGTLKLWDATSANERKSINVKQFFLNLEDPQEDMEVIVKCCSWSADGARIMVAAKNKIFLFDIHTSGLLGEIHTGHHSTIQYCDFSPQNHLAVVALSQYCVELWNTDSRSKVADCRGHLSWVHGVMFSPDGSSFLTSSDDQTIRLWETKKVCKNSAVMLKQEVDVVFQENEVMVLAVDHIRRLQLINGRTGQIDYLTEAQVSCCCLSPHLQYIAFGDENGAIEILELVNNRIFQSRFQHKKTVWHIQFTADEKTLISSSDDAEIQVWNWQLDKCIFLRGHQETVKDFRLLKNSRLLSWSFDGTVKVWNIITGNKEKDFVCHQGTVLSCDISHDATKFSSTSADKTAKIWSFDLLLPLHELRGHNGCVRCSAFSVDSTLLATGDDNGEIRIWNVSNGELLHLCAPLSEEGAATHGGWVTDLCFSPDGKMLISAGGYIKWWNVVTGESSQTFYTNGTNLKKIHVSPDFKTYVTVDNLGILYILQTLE

[4] = loss of viability in HepG2 cells – cell-based, CellTiter-Glo, cherry-picked, cytotoxicity control for Shn3 inhibitor project, dose response (AID 624134); assay type: functional
[5] = target: Photoreceptor-specific nuclear receptor (Homo sapiens, UniProt Q9Y5X4); assay type: functional;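 also: potency for compounds that break the NR2E3 corepressor complex and count as activators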
Photoreceptor-specific nuclear receptor, sequence (Q9Y5X4 whole entry): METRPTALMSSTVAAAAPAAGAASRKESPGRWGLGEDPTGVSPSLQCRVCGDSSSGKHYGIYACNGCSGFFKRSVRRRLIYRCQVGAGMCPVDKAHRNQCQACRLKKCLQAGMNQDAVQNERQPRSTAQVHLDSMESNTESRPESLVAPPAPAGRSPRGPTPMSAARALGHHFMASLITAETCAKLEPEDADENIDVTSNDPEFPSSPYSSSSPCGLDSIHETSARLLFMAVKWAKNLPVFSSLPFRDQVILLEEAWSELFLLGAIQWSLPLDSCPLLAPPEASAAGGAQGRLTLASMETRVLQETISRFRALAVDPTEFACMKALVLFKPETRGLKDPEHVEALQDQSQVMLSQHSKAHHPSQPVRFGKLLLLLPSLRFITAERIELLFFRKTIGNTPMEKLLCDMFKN

[6] = blockade of melanocortin 4 receptor signaling – cell-based, plate reader, cherry pick, counter-screen for LGR2 antagonist project, dose response (AID 743444); assay type: functional;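 also: transfected HEK 293 cells stimulated with alpha-MSH peptide; potency of inhibitors of the alpha-MSH evoked signal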
BJ = test: BJ-TERT-LT-ST fibroblast viability loss – cell-based, RAS-independent, luminescence, dose response (AID 1935); assay type: functional; settings: Homo sapiens;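 also: BJ fibroblasts immortalized with TERT plus LT and ST oncogenes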
[7] = activation of miR-122 Renilla sensor silencing – cell-based, Huh7 psiCHECK-miR122, Renilla luciferase, cherry-picked, dose response (AID 651956); assay type: functional;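 also: huh7 hepatoma cells stably carrying a psiCHECK-2 miR-122 sensor plasmid; renilla luciferase signal reporting endogenous miR-122 activity after 48 h compound exposure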
[8] = target: ATP-dependent molecular chaperone HSP82 (Candida albicans (strain WO-1) (Yeast), UniProt C4YTQ8); test: steroid-induced GRE reporter decrease in yeast – S. cerevisiae, luminescence, Hsp90 inhibitor project, dose response (AID 2400); assay type: functional, cell-based;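 also: beta-galactosidase luminescence from glucocorticoid response element reporter as proxy for Hsp90 function; inhibitor potency where signal loss means Hsp90 inhibition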
ATP-dependent molecular chaperone HSP82, sequence (C4YTQ8 whole entry): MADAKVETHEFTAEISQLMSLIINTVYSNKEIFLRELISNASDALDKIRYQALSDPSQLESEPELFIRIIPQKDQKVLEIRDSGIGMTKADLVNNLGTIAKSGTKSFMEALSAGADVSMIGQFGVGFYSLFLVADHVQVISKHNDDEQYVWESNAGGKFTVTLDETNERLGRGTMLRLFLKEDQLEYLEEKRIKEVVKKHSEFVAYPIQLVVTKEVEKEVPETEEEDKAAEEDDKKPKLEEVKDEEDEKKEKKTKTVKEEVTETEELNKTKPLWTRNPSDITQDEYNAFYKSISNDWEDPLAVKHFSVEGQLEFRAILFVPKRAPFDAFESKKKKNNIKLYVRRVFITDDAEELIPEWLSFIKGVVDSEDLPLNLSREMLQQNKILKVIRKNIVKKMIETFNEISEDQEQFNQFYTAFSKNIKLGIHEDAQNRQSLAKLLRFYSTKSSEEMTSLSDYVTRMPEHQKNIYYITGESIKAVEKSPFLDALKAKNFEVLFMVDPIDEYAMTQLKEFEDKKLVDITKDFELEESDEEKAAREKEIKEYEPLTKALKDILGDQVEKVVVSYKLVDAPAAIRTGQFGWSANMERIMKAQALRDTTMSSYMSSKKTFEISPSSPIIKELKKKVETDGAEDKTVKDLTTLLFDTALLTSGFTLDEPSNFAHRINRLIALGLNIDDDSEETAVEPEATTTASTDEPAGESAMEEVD

[9] = Counterscreen for AddAB inhibitors: absorbance-based bacterial cell-based high throughput dose response assay for inhibitors of bacterial viability. [Related pubchem assays (depositor defined):AID435030, AID449728, AID449731, AID488942, AID488955, AID488956]; assay type: functional

Lysine-specific demethylase 4C, sequence (Q9H3R0 whole entry): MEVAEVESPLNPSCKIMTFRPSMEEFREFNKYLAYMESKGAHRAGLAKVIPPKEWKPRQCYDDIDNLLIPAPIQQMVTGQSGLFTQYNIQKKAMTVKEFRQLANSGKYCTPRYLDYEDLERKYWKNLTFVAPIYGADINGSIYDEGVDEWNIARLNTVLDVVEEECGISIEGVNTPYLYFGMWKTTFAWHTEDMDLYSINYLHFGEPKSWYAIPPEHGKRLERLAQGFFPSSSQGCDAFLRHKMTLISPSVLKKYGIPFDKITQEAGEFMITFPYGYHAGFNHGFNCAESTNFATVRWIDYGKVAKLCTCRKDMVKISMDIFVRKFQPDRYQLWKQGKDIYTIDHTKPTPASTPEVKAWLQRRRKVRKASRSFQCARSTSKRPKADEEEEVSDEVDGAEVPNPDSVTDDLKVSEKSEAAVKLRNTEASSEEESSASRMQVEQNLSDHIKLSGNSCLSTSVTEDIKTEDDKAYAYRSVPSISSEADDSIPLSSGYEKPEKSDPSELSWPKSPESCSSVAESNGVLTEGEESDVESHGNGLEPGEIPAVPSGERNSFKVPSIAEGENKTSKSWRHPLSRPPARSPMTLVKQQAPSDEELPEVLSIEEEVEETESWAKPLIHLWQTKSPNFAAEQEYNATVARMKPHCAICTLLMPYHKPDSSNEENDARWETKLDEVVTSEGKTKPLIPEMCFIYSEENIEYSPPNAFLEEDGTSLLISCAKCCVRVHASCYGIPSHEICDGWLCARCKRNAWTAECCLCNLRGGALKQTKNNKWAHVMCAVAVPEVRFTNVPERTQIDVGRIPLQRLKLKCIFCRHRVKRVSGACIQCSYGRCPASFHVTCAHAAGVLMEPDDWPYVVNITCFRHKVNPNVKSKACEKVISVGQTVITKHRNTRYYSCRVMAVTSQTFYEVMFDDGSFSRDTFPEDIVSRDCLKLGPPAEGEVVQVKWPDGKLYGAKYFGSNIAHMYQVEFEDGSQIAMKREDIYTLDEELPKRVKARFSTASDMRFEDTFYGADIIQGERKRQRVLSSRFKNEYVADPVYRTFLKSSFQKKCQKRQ

With `Cn1nc(-c2ccccn2)nc2c(=O)n(C)c(=O)nc1-2` the AC50 [1] was 0.873 µM (active), the IC50 [2] was > 122 µM (inactive) and the IC50 [3] was 0.079 µM (active). For the same molecule, the AC50 [4] was 5.81 µM (active), the IC50 [5] was > 39.8 µM (not active) and the AC50 [6] was 2.73 µM (active).
In the case of `CCCCCCCCCCn1c2c(c(=N)c3c1CCC3)CCC2`, the EC50 (BJ) is reported as 5.73 µM (inconclusive) and the AC50 [7] is reported as 5.06 µM (active).
In the case of `CCC(=O)NC(c1ccc(OC)cc1)c1cc(Cl)c2cccnc2c1O` (stereo not given), the EC50 [8] is reported as > 160 µM (inactive) and the IC50 [9] is reported as > 119 µM (inactive).
